± gives the expanded uncertainty stated by the source.
Assay: xn = mol fraction of the nth substance listed
Settings: 101 kPa, Liquid; for viscosity: Capillary tube (Ostwald / Ubbelohde) method; for mass density: Vibrating tube method

CCCCCC(C)O (stereo unspecified) [2-heptanol] + NC=O
Settings	mass density, 298.15 K [kg/m3]	mass density, 303.15 K [kg/m3]	mass density, 308.15 K [kg/m3]	mass density, 313.15 K [kg/m3]	viscosity, 298.15 K [mPa·s]	viscosity, 303.15 K [mPa·s]	viscosity, 308.15 K [mPa·s]	viscosity, 313.15 K [mPa·s]
x2 = 0	813.38 ± 1	809.5 ± 1	805.72 ± 1	801.46 ± 1	5.296 ± 0.21	4.315 ± 0.17	3.535 ± 0.14	2.96 ± 0.12
x2 = 0.0819	821.08 ± 1	817.04 ± 1	813.18 ± 1	808.95 ± 1	5.094 ± 0.21	4.157 ± 0.17	3.403 ± 0.14	2.842 ± 0.12
x2 = 0.1603	829.46 ± 1	825.3 ± 1	821.41 ± 1	817.16 ± 1	4.915 ± 0.2	4.021 ± 0.16	3.299 ± 0.13	2.767 ± 0.11
x2 = 0.2402	839.28 ± 1	835.08 ± 1	831.16 ± 1	826.89 ± 1	4.744 ± 0.19	3.905 ± 0.16	3.219 ± 0.13	2.718 ± 0.11
x2 = 0.3508	855.44 ± 1	851.28 ± 1	847.38 ± 1	843.03 ± 1	4.541 ± 0.18	3.773 ± 0.15	3.131 ± 0.13	2.669 ± 0.11
x2 = 0.4402	871.35 ± 1	867.27 ± 1	863.34 ± 1	858.97 ± 1	4.385 ± 0.18	3.673 ± 0.15	3.07 ± 0.12	2.637 ± 0.11
x2 = 0.567	900.02 ± 1	895.95 ± 1	891.92 ± 1	887.52 ± 1	4.176 ± 0.17	3.543 ± 0.14	2.997 ± 0.12	2.607 ± 0.11
x2 = 0.6525	924.85 ± 1	920.66 ± 1	916.51 ± 1	912.11 ± 1	4.035 ± 0.16	3.459 ± 0.14	2.952 ± 0.12	2.593 ± 0.11
x2 = 0.7403	957.01 ± 1	952.58 ± 1	948.4 ± 1	944.03 ± 1	3.881 ± 0.16	3.363 ± 0.14	2.896 ± 0.12	2.571 ± 0.1
x2 = 0.8501	1010.97 ± 1	1006.37 ± 1	1002.12 ± 1	997.89 ± 1	3.647 ± 0.15	3.204 ± 0.13	2.792 ± 0.11	2.51 ± 0.1
x2 = 0.94	1072.96 ± 1	1068.47 ± 1	1064.24 ± 1	1059.95 ± 1	3.446 ± 0.14	3.069 ± 0.12	2.701 ± 0.11	2.455 ± 0.099

CCCCC(C)O (stereo unspecified) [2-hexanol] + NC=O
Settings	mass density, 298.15 K [kg/m3]	mass density, 303.15 K [kg/m3]	mass density, 308.15 K [kg/m3]	mass density, 313.15 K [kg/m3]	viscosity, 298.15 K [mPa·s]	viscosity, 303.15 K [mPa·s]	viscosity, 308.15 K [mPa·s]	viscosity, 313.15 K [mPa·s]
x2 = 0	810.14 ± 1	806.13 ± 1	802.06 ± 1	797.96 ± 1	4.101 ± 0.17	3.411 ± 0.14	2.819 ± 0.12	2.219 ± 0.09
x2 = 0.0818	818.06 ± 1	814.05 ± 1	809.79 ± 1	805.72 ± 1	4.008 ± 0.16	3.334 ± 0.14	2.753 ± 0.11	2.171 ± 0.088
x2 = 0.1638	827.12 ± 1	823.03 ± 1	818.79 ± 1	814.58 ± 1	3.918 ± 0.16	3.276 ± 0.13	2.711 ± 0.11	2.16 ± 0.088
x2 = 0.2392	836.66 ± 1	832.51 ± 1	828.24 ± 1	823.99 ± 1	3.85 ± 0.16	3.23 ± 0.13	2.69 ± 0.11	2.169 ± 0.088
x2 = 0.3529	853.7 ± 1	849.5 ± 1	845.26 ± 1	841.01 ± 1	3.778 ± 0.15	3.176 ± 0.13	2.679 ± 0.11	2.199 ± 0.089
x2 = 0.4439	870.39 ± 1	866.2 ± 1	861.95 ± 1	857.71 ± 1	3.744 ± 0.15	3.187 ± 0.13	2.686 ± 0.11	2.235 ± 0.091
x2 = 0.5613	897.25 ± 1	893.04 ± 1	888.76 ± 1	884.48 ± 1	3.695 ± 0.15	3.185 ± 0.13	2.71 ± 0.11	2.3 ± 0.093
x2 = 0.6496	922.95 ± 1	918.63 ± 1	914.3 ± 1	909.96 ± 1	3.647 ± 0.15	3.169 ± 0.13	2.724 ± 0.11	2.35 ± 0.095
x2 = 0.743	957.42 ± 1	953.01 ± 1	948.59 ± 1	944.27 ± 1	3.582 ± 0.14	3.144 ± 0.13	2.726 ± 0.11	2.392 ± 0.097
x2 = 0.8502	1010.56 ± 1	1006.13 ± 1	1001.67 ± 1	997.41 ± 1	3.479 ± 0.14	3.078 ± 0.12	2.695 ± 0.11	2.406 ± 0.097
x2 = 0.9398	1072.59 ± 1	1068.37 ± 1	1063.89 ± 1	1059.71 ± 1	3.378 ± 0.14	3.021 ± 0.12	2.662 ± 0.11	2.413 ± 0.098
